Data taken from US8216644B2, “Controlling wood staining and color during post-harvest processing” (Purdue Research Foundation, priority 2006, dated 2012).

Tests used:
[1] = tested on: freshly cut black walnut wood
[2] = tested on: freshly cut sugar maple wood; test: test strip assay on freshly cut wood, sugar maple

Structure (SMILES): NC(N)=O.OO [hydrogen peroxide urea adduct]
- staining of wood ([1]; 0.5 and 1.0% (w:w) concentration range, FIG. 4): visible staining
- staining of wood (experimental spots) ([1]; test strips 0.5, 1.0, 5.0 and 10% (w:w), FIG. 2): visible on top of the background staining
- staining of wood at 10% ([2]; 10% (w:w), FIG. 1): chemical breakdown of the staining due to bulk oxidation
- background gray scale values (bg), relative darkness ([2]; image analysis of FIG. 3, plot profile, FIG. 5): increase in wood darkening with increasing hydrogen peroxide urea adduct concentrations
- concentration range in which the staining reaction appears saturated ([2]; test strips 0, 0.5, 1.0, 5.0 and 10% (w:w), FIG. 1): 0.5-1.0%
- staining reaction over concentration range ([2]; test strips 0.05, 0.1, 0.5 and 1.0% (w:w), FIG. 3): shows a dose response curve
